Assay results published in patent publication EP0232650B1, “Analogues of hypocalcemic polypeptide compounds preserving the calcium content of the body, their manufacture, their use as medicaments and the compositions thereof” (MILHAUD, Gérard, priority 1985, dated 1989).
Where a SMILES comes first, the peptide text is derived from it. Bridges are numbered along the chain shown (N, C = ends).

Experiment: Hypocalcemic activity in the fasted male rat (fall in calcemia one hour after intravenous injection, compared with Research Standard B)
Format: in vivo
Details: male rat 100-120 g, fasted 16 hours, peptide diluted in sodium acetate buffer 0,1 N pH 6 with 0,1 % albumin, versus "Research Standard B"
Source text: Elle est déterminée chez le rat mâle pesant de 100 à 120 g et soumis à un jeûne de 16 heures. L'activité est exprimée en unité MRC à partir de la baisse de la calcémie, mesurée une heure après l'injection intraveineuse de peptide à tester convenablement dilué en tampon acétate de sodium 0,1 N pH 6 et 0,1 % d'albumine, par comparaison avec l'activité du "Research Standard B" convenablement dilué. L'activité biologique du peptide de l'exemple 1 est supérieure à 4000 unités MRC par mg et celle du peptide de l'exemple 2 est supérieure à 4500 unités MRC par mg.

For `CC(C)C[C@H](NC(=O)[C@H](CCCCN)NC(=O)CNC(=O)[C@H](CC(C)C)NC(=O)[C@@H](NC(=O)[C@@H]1CSSC[C@H](N)C(=O)N[C@@H](CC(N)=O)C(=O)N[C@@H](CO)C(=O)N[C@@H](CC(C)C)C(=O)N[C@@H](CO)C(=O)N[C@@H]([C@@H](C)O)C(=O)N1)C(C)C)C(=O)N[C@@H](CO)C(=O)N[C@@H](CCC(N)=O)C(=O)N[C@@H](CCC(=O)O)C(=O)N[C@@H](CC(C)C)C(=O)N[C@@H](Cc1c[nH]cn1)C(=O)N[C@@H](CCCCN)C(=O)N[C@@H](CC(C)C)C(=O)N[C@@H](CCC(N)=O)C(=O)N[C@H](C(=O)N[C@@H](Cc1ccc(O)cc1)C(=O)N1CCC[C@H]1C(=O)N[C@@H](CCCNC(=N)N)C(=O)N[C@H](C(=O)N[C@@H](CC(=O)O)C(=O)N[C@H](C(=O)NCC(=O)N[C@@H](C)C(=O)NCC(=O)N[C@H](C(=O)N1CCC[C@H]1C(N)=O)[C@@H](C)O)C(C)C)[C@@H](C)O)[C@@H](C)O` [exemple 1, Cys - Asn - Ser - Leu - Sers - Thr - Cys - Val - Leu - Glyio - Lys - Leu - Ser - Gin - Glu1s - Leu - His - Lys - Leu - Gln20- Thr - Tyr - Pro - Arg - Thr25- Asp - Val - Gly - Ala - Gly30 - Thr - Proamide] (H-CNSLSTCVLGKLSQELHKLQTYPRTDVGAGTP-NH2; disulfide 1-7), which activité biologique is on record?
Its activité biologique is > 4000 unités MRC par mg.
